Results reported in patent US20230321251A1, “LIPOSOME FORMULATION CONTAINING ANTIBACTERIAL AGENT” (priority 2020, published 2023).
≈ marks a conversion by molar mass, not a printed value. Where “and” joins values, the source holds several entries; their conditions need not be identical. Equal values may be shown once.

Key:
E. faecium SRM1101 = assay: In vitro antibacterial activity (MIC), agar plate dilution; assay type: cell-based
Protocol: (§1) A minimum inhibitory concentration was measured as in vitro antibacterial activity. The minimum inhibitory concentration (MIC: μg/ml) was measured according to the standard method of Japanese Society of Chemotherapy, by an agar plate dilution method using 1000 cfu/spot as an inoculum amount and a susceptibility disk medium as a test medium.
(§2) In the tables, a unit of a numerical value of inhibitory activity is μg/ml. In addition, in the tables, S. aureus represents Staphylococcus aureus and E. faecalis represents Gram-positive group D streptococci (enterococci) that are resident in a normal bacterial flora of a human intestinal tract, and can be causative bacteria of endocarditis and the like after surgery.

E. faecalis SR1004 = assay: as above; assay type: cell-based; settings: for minimum inhibitory concentration (MIC): E. faecalis SR1004, 1000 cfu/spot
Protocol: as §1, §2

E. faecalis SR7914 = assay: as above; assay type: cell-based; settings: for minimum inhibitory concentration (MIC): E. faecalis SR7914, 1000 cfu/spot
Protocol: as §1, §2

E. faecium SR7940 = assay: as above; assay type: cell-based; settings: for minimum inhibitory concentration (MIC): E. faecium SR7940, 1000 cfu/spot
Protocol: as §1, §2

[1] = Tissue distribution test (plasma, liver, kidney, lung); settings: ICR mice; for Kidney Concentration / Liver Concentration / Lung Concentration / Plasma Concentration / Kidney Kp / Liver Kp / Lung Kp: iv 5 mg/kg; for concentration at 0.5 h / concentration at 2 h / concentration at 24 h / Kp at 0.5 h / Kp at 2 h / Kp at 24 h: ICR, mouse, in vivo, iv, 5 mg/kg
Protocol: (3) Tissue Distribution of Active Ingredient after Administration of Liposome Formulation
(Tissue Distribution Test)
The compound of the present invention was intravenously administered at a dose of 5 mg/kg to ICR mice. […] Then, the liver, kidney, and lung were removed, and a 25% homogenate was prepared with distilled water. The obtained blood was centrifuged, and plasma was then obtained. Thereafter, each sample was measured using LC/MS/MS. The concentration value ratio (each tissue/plasma) obtained was used as a tissue Kp value.

S. aureus VRS1 = assay: In vitro antibacterial activity (MIC), agar plate dilution; assay type: cell-based, Staphylococcus aureus; settings: for minimum inhibitory concentration (MIC): S. aureus VRS1, 1000 cfu/spot
Protocol: as §1, §2

S. aureus ATCC700787 = assay: as above; assay type: cell-based, Staphylococcus aureus
Protocol: as §1, §2

[2] = Plasma concentration of active ingredient after intravenous administration (PK parameters)
Protocol: (2) Plasma Concentration of Active Ingredient after Administration of Liposome Formulation
1) Animals used: ICR mice were used.
2) Breeding conditions: The mice were allowed to freely take chow and sterilized tap water.
3) Dose and grouping setting: A predetermined dose was intravenously administered. The intravenous dose was 5 mg/kg (n=3).
4) Formulation of dosing solution: The dosing solution was administered as a 5% glucose solution.
5) Administration method: Administration was performed via the tail vein through a syringe with an injection needle.
6) Evaluation item: Blood was collected over time, and the plasma concentration of the compound of the present invention was measured using LC/MS/MS.
7) Parameter analysis: For the plasma concentration of the compound of the present invention, area under the plasma concentration-time curve (AUC), systemic clearance (CLtot), elimination half-life (t½), and steady state distribution volume (Vdss) of the compound of the present invention were calculated by non-compartmental model analysis.

S. aureus ATCC25923 = assay: In vitro antibacterial activity (MIC), agar plate dilution; assay type: cell-based, Staphylococcus aureus
Protocol: as §1, §2

[3] = ICR mice, intravenous 5 mg/kg, plasma
[4] = ICR, mouse, in vivo, iv, 5 mg/kg

CN[C@H](CC(C)C)C(=O)N[C@H]1C(=O)N[C@@H](CC(N)=O)C(=O)N[C@H]2C(=O)N[C@H]3C(=O)N[C@H](C(=O)N[C@H](C(=O)O)c4cc(O)cc(O)c4-c4cc3ccc4O)[C@H](O[C@H]3C[C@](C)(N)[C@@H](O)[C@H](C)O3)c3ccc(c(Cl)c3)Oc3cc2cc(c3O[C@@H]2O[C@H](CO)[C@@H](O)[C@H](O)[C@H]2O[C@H]2C[C@](C)(NCc3ccc(-c4ccc(Cl)cc4)cc3)[C@@H](O)[C@H](C)O2)Oc2ccc(cc2Cl)[C@H]1O [Oritavancin drug substance, oritavancin]
minimum inhibitory concentration (MIC) (E. faecium SRM1101; E. faecium SRM1101, 1000 cfu/spot): 2 µg/mL and 4 µg/mL | minimum inhibitory concentration (MIC) (E. faecalis SR1004): 2 µg/mL and 1 µg/mL | minimum inhibitory concentration (MIC) (E. faecalis SR7914): 2 µg/mL and 1 µg/mL | minimum inhibitory concentration (MIC) (E. faecium SR7940): 2 µg/mL (≈ 1.12 µM) | Kidney Concentration ([1]; 0.5 hour after administration): 10300 ± 1090 ng/mL | Liver Concentration ([1]; 0.5 hour after administration): 14800 ± 1230 ng/mL | Lung Concentration ([1]; 0.5 hour after administration): 15100 ± 563 ng/mL | Plasma Concentration ([1]; 0.5 hour after administration): 34400 ± 4550 ng/mL | Kidney Concentration ([1]; 2 hours after administration): 8720 ± 538 ng/mL | Liver Concentration ([1]; 2 hours after administration): 24900 ± 1400 ng/mL | Lung Concentration ([1]; 2 hours after administration): 10100 ± 1010 ng/mL | Plasma Concentration ([1]; 2 hours after administration): 14900 ± 1710 ng/mL | Kidney Concentration ([1]; 24 hours after administration): 4090 ± 462 ng/mL | Liver Concentration ([1]; 24 hours after administration): 38500 ± 2780 ng/mL | Lung Concentration ([1]; 24 hours after administration): 3790 ± 388 ng/mL | Plasma Concentration ([1]; 24 hours after administration): 63.9 ± 12.0 ng/mL | Kidney Kp ([1]; kidney/plasma concentration ratio, 0.5 hour): 0.30 ± 0.04 | Kidney Kp ([1]; kidney/plasma concentration ratio, 2 hours): 0.59 ± 0.05 | Kidney Kp ([1]; kidney/plasma concentration ratio, 24 hours): 66.12 ± 17.05 | Liver Kp ([1]; liver/plasma concentration ratio, 0.5 hour): 0.44 ± 0.08 | Liver Kp ([1]; liver/plasma concentration ratio, 2 hours): 1.68 ± 0.10 | Liver Kp ([1]; liver/plasma concentration ratio, 24 hours): 611.35 ± 72.9 | Lung Kp ([1]; lung/plasma concentration ratio, 0.5 hour): 0.44 ± 0.07 | Lung Kp ([1]; lung/plasma concentration ratio, 2 hours): 0.68 ± 0.09 | Lung Kp ([1]; lung/plasma concentration ratio, 24 hours): 61.19 ± 15.12 | minimum inhibitory concentration (MIC) (S. aureus VRS1): 4 µg/mL and 2 µg/mL | minimum inhibitory concentration (MIC) (S. aureus ATCC700787; S. aureus ATCC700787, 1000 cfu/spot): 4 µg/mL and 2 µg/mL | CL tot [2, 3]: 0.989 ± 0.049 mL/min/kg | T1/2 [2, 3]: 2.2 ± 1.3 h

CCCCCCCCCCNCCN[C@@]1(C)C[C@H](O[C@H]2[C@H](Oc3c4cc5cc3Oc3ccc(cc3Cl)[C@@H](O)[C@@H]3NC(=O)[C@H](NC(=O)[C@@H]5NC(=O)[C@H](CC(N)=O)NC(=O)C(NC(=O)[C@@H](CC(C)C)NC)[C@H](O)c5ccc(c(Cl)c5)O4)c4ccc(O)c(c4)-c4c(cc(O)c(CNCP(=O)(O)O)c4O)[C@@H](C(=O)O)NC3=O)O[C@H](CO)[C@@H](O)[C@@H]2O)O[C@@H](C)[C@H]1O (some centres unmarked) [Telavancin drug substance, telavancin]
MIC (E. faecium SRM1101; Enterococcus faecium, SRM1101, read-out: minimum inhibitory concentration (MIC)): 4 µg/mL (≈ 2.28 µM) | minimum inhibitory concentration (MIC) (E. faecalis SR1004): 0.5 µg/mL (≈ 0.285 µM) | MIC (E. faecalis SR1004; Enterococcus faecalis, SR1004, read-out: minimum inhibitory concentration (MIC), E. faecalis SR1004, 1000 cfu/spot): 1 µg/mL (≈ 0.57 µM) | minimum inhibitory concentration (MIC) (E. faecalis SR7914): 2 µg/mL (≈ 1.14 µM) | MIC (E. faecalis SR7914; Enterococcus faecalis, SR7914, read-out: minimum inhibitory concentration (MIC), E. faecalis SR7914, 1000 cfu/spot): 4 µg/mL (≈ 2.28 µM) | minimum inhibitory concentration (MIC) (E. faecium SR7940): 2 µg/mL (≈ 1.14 µM) | MIC (E. faecium SR7940; Enterococcus faecium, SR7940, read-out: minimum inhibitory concentration (MIC), E. faecium SR7940, 1000 cfu/spot): 4 µg/mL (≈ 2.28 µM) | concentration at 0.5 h ([1]; Kidney Concentration, 0.5 hour after administration): 19000 ± 4110 ng/mL | concentration at 2 h ([1]; Kidney Concentration, 2 hours after administration): 12700 ± 2470 ng/mL | concentration at 24 h ([1]; Kidney Concentration, 24 hours after administration): 5930 ± 1600 ng/mL | Kp at 0.5 h ([1]; Kidney Kp, kidney/plasma concentration ratio, 0.5 hour): 1.05 ± 0.23 | Kp at 2 h ([1]; Kidney Kp, kidney/plasma concentration ratio, 2 hours): 1.64 ± 0.12 | Kp at 24 h ([1]; Kidney Kp, kidney/plasma concentration ratio, 24 hours): 49.9 | concentration at 0.5 h ([1]; Liver Concentration, 0.5 hour after administration): 3780 ± 201 ng/mL | concentration at 2 h ([1]; Liver Concentration, 2 hours after administration): 4050 ± 256 ng/mL | concentration at 24 h ([1]; Liver Concentration, 24 hours after administration): 2340 ± 465 ng/mL | Kp at 0.5 h ([1]; Liver Kp, liver/plasma concentration ratio, 0.5 hour): 0.21 ± 0.01 | Kp at 2 h ([1]; Liver Kp, liver/plasma concentration ratio, 2 hours): 0.53 ± 0.05 | Kp at 24 h ([1]; Liver Kp, liver/plasma concentration ratio, 24 hours): 17.2 | concentration at 0.5 h ([1]; Lung Concentration, 0.5 hour after administration): 5860 ± 208 ng/mL | concentration at 2 h ([1]; Lung Concentration, 2 hours after administration): 2820 ± 162 ng/mL | concentration at 24 h ([1]; Lung Concentration, 24 hours after administration): 736 ± 158 ng/mL | Kp at 0.5 h ([1]; Lung Kp, lung/plasma concentration ratio, 0.5 hour): 0.32 ± 0.03 | Kp at 2 h ([1]; Lung Kp, lung/plasma concentration ratio, 2 hours): 0.37 ± 0.04 | Kp at 24 h ([1]; Lung Kp, lung/plasma concentration ratio, 24 hours): 5.75 | concentration at 0.5 h ([1]; Plasma Concentration, 0.5 hour after administration): 18200 ± 627 ng/mL | concentration at 2 h ([1]; Plasma Concentration, 2 hours after administration): 7700 ± 977 ng/mL | concentration at 24 h ([1]; Plasma Concentration, 24 hours after administration): 51.9 ± 89.9 ng/mL | minimum inhibitory concentration (MIC) (S. aureus VRS1): 2 µg/mL (≈ 1.14 µM) | MIC (S. aureus VRS1; Staphylococcus aureus, VRS1, read-out: minimum inhibitory concentration (MIC), S. aureus VRS1, 1000 cfu/spot): 4 µg/mL (≈ 2.28 µM) | MIC (S. aureus ATCC700787; Staphylococcus aureus, ATCC700787, read-out: minimum inhibitory concentration (MIC)): 1 µg/mL (≈ 0.57 µM) | minimum inhibitory concentration (MIC) (S. aureus ATCC25923; S. aureus ATCC25923, 1000 cfu/spot): 0.25 µg/mL (≈ 0.142 µM) | MIC (S. aureus ATCC25923; Staphylococcus aureus, ATCC25923, read-out: minimum inhibitory concentration (MIC), S. aureus ATCC25923, 1000 cfu/spot): 0.5 µg/mL (≈ 0.285 µM) | AUC(0-inf) [2, 4]: 57200 ± 12800 ng·h/mL | clearance [2, 4]: 1.52 ± 0.32 mL/min/kg | half-life [2, 4]: 2.7 ± 2.7 h
